Laboratory results: patent US10131652B2, “Pyrimidinyloxy benzene derivatives as herbicides” (E. I. DU PONT DE NEMOURS AND COMPANY, priority 2014, dated 2018)

Tests used:
[1] = tested on: Russian thistle (Salsola iberica); test: Test E pre-/postemergence plant response; type: in vivo; details: scale 0 to 100
Summary of the method: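 Pre-emergence: seeds sown in silt loam soil and sprayed with test chemicals in a non-phytotoxic solvent/surfactant mix. Post-emergence: plants at 2–18 cm (1- to 4-leaf stage) in peat/vermiculite medium treated with the same formulation. Visual rating versus controls after 7–21 days, 0 (no effect) to 100 (complete control).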

[2] = tested on: cocklebur (common cocklebur, Xanthium strumarium); test: Test F pre-/postemergence plant response; type: in vivo; details: scale 0 to 100
Summary of the method: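 Seeds were sown in silt loam and sprayed preemergence; in parallel, plants at 2–18 cm (1- to 4-leaf) received postemergence sprays. Test chemicals were in a non-phytotoxic solvent with surfactant. After 14–21 days in the greenhouse, injury was rated visually against controls on a 0–100 scale (100 = complete control).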

[3] = tested on: barnyardgrass (Echinochloa crus-galli); test: Test G flooded paddy rice/weed plant response; type: in vivo; details: Flood, 21 days, scale 0 to 100 (0 no effect, 100 complete control)
Description: (§1) Three plastic pots (ca. 16-cm diameter) per rate were partially filled with sterilized Tama silt loam soil comprising a 35:50:15 ratio of sand, silt and clay and 2.6% organic matter. Separate plantings for each of the three pots were as follows. Seeds from the U.S. of monochoria (Monochoria vaginalis), small-flower umbrella sedge (Cyperus difformis), hardstem bulrush (Scirpus juncoides), and redstem (purple redstem, Ammannia coccinea), were planted into one 16-cm pot for each rate. Seeds from the U.S. of rice flatsedge (Cyperus iria), bearded sprangletop (Leptochloa fascicularis), one stand of 9 or 10 water seeded rice seedlings (Indica rice, Oryza sativa), and two stands of 3 or 4 transplanted rice seedlings (Oryza sativa cv. ‘Japonica—M202’) were planted into one 16-cm pot for each rate. Seeds from the U.S. of bamyardgrass (Echinochloa crus-galli), and late watergrass (Echinochloa oryzicola) were planted into one 16-cm pot for each rate. Plantings were sequential so that crop and weed species were at the 2.0 to 2.5-leaf stage at time of treatment.
(§2) Potted plants were grown in a greenhouse with day/night temperature settings of 30/27° C., and supplemental balanced lighting was provided to maintain a 16-hour photoperiod. Test pots were maintained in the greenhouse until test completion.
(§3) At time of treatment, test pots were flooded to 3 cm above the soil surface, treated by application of test compounds directly to the paddy water, and then maintained at that water depth for the duration of the test. Effects of treatments on rice and weeds were visually evaluated by comparison to untreated controls after 21 days. Plant response ratings, summarized in Table G, are based on a scale of 0 to 100 where 0 is no effect and 100 is complete control. A dash (-) response means no test result.

[4] = tested on: late watergrass (Echinochloa oryzicola); test: Test G flooded paddy rice/weed plant response; type: in vivo; details: Flood, 21 days, scale 0 to 100 (0 no effect, 100 complete control)
Description: as §1, §2, §3

[5] = tested on: monochoria (Monochoria vaginalis); test: Test G flooded paddy rice/weed plant response; type: in vivo; details: Flood, 21 days, scale 0 to 100 (0 no effect, 100 complete control)
Description: as §1, §2, §3

[6] = tested on: rice flatsedge (Cyperus iria); test: Test G flooded paddy rice/weed plant response; type: in vivo; details: Flood, 21 days, scale 0 to 100 (0 no effect, 100 complete control)
Description: as §1, §2, §3

[7] = tested on: transplanted rice seedlings (Oryza sativa cv. ‘Japonica—M202’); test: Test G flooded paddy rice/weed plant response; type: in vivo; details: Flood, 21 days, scale 0 to 100 (0 no effect, 100 complete control)
Description: as §1, §2, §3

[8] = tested on: water seeded rice seedlings (Indica rice, Oryza sativa); test: Test G flooded paddy rice/weed plant response; type: in vivo; details: Flood, 21 days, scale 0 to 100 (0 no effect, 100 complete control)
Description: as §1, §2, §3

Row | SMILES | Plant response rating, Russian Thistle ([1]; 16 g ai/ha Postemergence) | Plant response rating, Russian Thistle ([1]; 16 g ai/ha Preemergence) | Plant response rating, Russian Thistle ([1]; 31 g ai/ha Postemergence) | Plant response rating, Russian Thistle ([1]; 31 g ai/ha Preemergence) | Plant response rating, Russian Thistle ([1]; 62 g ai/ha Postemergence) | Plant response rating, Russian Thistle ([1]; 62 g ai/ha Preemergence) | Plant response rating, Russian Thistle ([1]; 125 g ai/ha Postemergence) | Plant response rating, Russian Thistle ([1]; 125 g ai/ha Preemergence) | Plant response rating, Barnyardgrass ([3]; 32 g ai/ha) | Plant response rating, Barnyardgrass ([3]; 64 g ai/ha) | Plant response rating, Barnyardgrass ([3]; 125 g ai/ha) | Plant response rating, Barnyardgrass ([3]; 250 g ai/ha) | Plant response rating, Watergrass, Late ([4]; 32 g ai/ha) | Plant response rating, Watergrass, Late ([4]; 64 g ai/ha) | Plant response rating, Watergrass, Late ([4]; 125 g ai/ha) | Plant response rating, Watergrass, Late ([4]; 250 g ai/ha) | Plant response rating, Monochoria ([5]; 32 g ai/ha) | Plant response rating, Monochoria ([5]; 64 g ai/ha) | Plant response rating, Monochoria ([5]; 125 g ai/ha) | Plant response rating, Monochoria ([5]; 250 g ai/ha) | other results
1 | Fc1cccc(Oc2ncc(Cl)cn2)c1-c1cc(C(F)F)no1 [Compound 144, 5-chloro-2-[2-[3-(difluoromethyl)-5-isoxazolyl]-3-fluorophenoxy]pyrimidine] | 85 | 15 | 90 | 65 | 95 | 100 | 98 | 100 |  |  |  |  |  |  |  |  |  |  |  |  | 
2 | FC(F)c1cc(-c2ccccc2Oc2ncc(Cl)cn2)no1 [Compound 35, 5-chloro-2-[2-[5-(difluoromethyl)-3-isoxazolyl]phenoxy]pyrimidine] |  |  |  |  |  |  |  |  | 30 | 45 | 100 | 100 | 0 | 30 | 40 | 100 | 98 | 100 | 100 | 100 | Plant response rating, Cocklebur ([2]; 31 g ai/ha Preemergence): 0; Plant response rating, Cocklebur ([2]; 125 g ai/ha Preemergence): 0; Plant response rating, Flatsedge, Rice ([6]; 32 g ai/ha): 100; Plant response rating, Flatsedge, Rice ([6]; 64 g ai/ha): 100; Plant response rating, Flatsedge, Rice ([6]; 125 g ai/ha): 100; Plant response rating, Flatsedge, Rice ([6]; 250 g ai/ha): 100; Plant response rating, Rice, Transplanted ([7]; 32 g ai/ha): 15; Plant response rating, Rice, Transplanted ([7]; 64 g ai/ha): 30; Plant response rating, Rice, Transplanted ([7]; 125 g ai/ha): 45; Plant response rating, Rice, Transplanted ([7]; 250 g ai/ha): 100; Plant response rating, Rice, Water Seeded ([8]; 32 g ai/ha): 60; Plant response rating, Rice, Water Seeded ([8]; 64 g ai/ha): 70; Plant response rating, Rice, Water Seeded ([8]; 125 g ai/ha): 100; Plant response rating, Rice, Water Seeded ([8]; 250 g ai/ha): 100
3 | FC(F)c1cc(-c2ccccc2Oc2ncc(Br)cn2)no1 [Compound 62, 5-bromo-2-[2-[5-(difluoromethyl)-3-isoxazolyl]phenoxy]pyrimidine] |  |  |  |  |  |  |  |  |  |  |  |  |  |  |  |  |  |  |  |  | melting point: 89 to 93 °C
4 | Fc1cccc(Oc2ncc(Cl)cn2)c1-c1cc(C(F)F)on1 [Compound 55, 5-chloro-2-[2-[5-(difluoromethyl)-3-isoxazolyl]-3-fluorophenoxy]pyrimidine] |  |  |  |  |  |  |  |  | 0 | 75 | 100 | 100 | 0 | 0 | 75 | 100 | 100 | 100 | 100 | 100 | Plant response rating, Flatsedge, Rice ([6]; 32 g ai/ha): 85; Plant response rating, Flatsedge, Rice ([6]; 64 g ai/ha): 100; Plant response rating, Flatsedge, Rice ([6]; 125 g ai/ha): 100; Plant response rating, Flatsedge, Rice ([6]; 250 g ai/ha): 100; Plant response rating, Rice, Transplanted ([7]; 32 g ai/ha): 20; Plant response rating, Rice, Transplanted ([7]; 64 g ai/ha): 60; Plant response rating, Rice, Transplanted ([7]; 125 g ai/ha): 80; Plant response rating, Rice, Transplanted ([7]; 250 g ai/ha): 100; Plant response rating, Rice, Water Seeded ([8]; 32 g ai/ha): 45; Plant response rating, Rice, Water Seeded ([8]; 64 g ai/ha): 100; Plant response rating, Rice, Water Seeded ([8]; 125 g ai/ha): 100; Plant response rating, Rice, Water Seeded ([8]; 250 g ai/ha): 100
5 | Fc1cccc(Oc2ncc(Br)cn2)c1-c1cc(C(F)F)no1 [Compound 145, 5-bromo-2-[2-[3-(difluoromethyl)-5-isoxazolyl]-3-fluorophenoxy]pyrimidine] | 80 | 0 | 85 | 10 | 90 | 60 | 100 | 100 |  |  |  |  |  |  |  |  |  |  |  |  | 
